Marks after values point to notes of the source that are not given here.

The source of these data is patent publication US8969375B2, “CDK9 kinase inhibitors” (AbbVie Inc., priority 2013, dated 2015).

The target of one data set is T1, CDK9/Cyclin T1 (Homo sapiens, UniProt P50750).
T1 construct: purchased Carna Biosciences 04-110
Briefly: CDK9 enzyme activity, LANCE ULight TR-FRET kinase assay. Format: biochemical. Particulars: 1000 μM ATP, 4 nM CDK9/Cyclin T1, 30 minutes. Here is the method:
CDK9 enzyme activities were measured using LANCE ULight TR-FRET kinase assay reagents (PerkinElmer, Waltham, Mass.). Compounds were directly added in 100% DMSO to white low volume assay plates (Perkin Elmer Proxiplate 6008289) using a Labcyte Echo acoustic dispenser. Assay reagents in serine/threonine kinase assay buffer containing 20 mM HEPES, 10 mM MgCl2, 100 mM Na3VO4, and 0.0075% Triton X-100. were added for final reaction mixture concentrations of 1000 μM ATP, 100 nM U-light MBP peptide (Perkin Elmer TRF0109M) and reaction initiated with 4 nM CDK9/Cyclin T1 (Carna Biosciences 04-110). The kinase reaction was carried out for 30 minutes before addition of stopping buffer to a final of 20 mM EDTA and 0.5 nM of LANCE Ultra Europium anti-phospho-MBP antibody (PerkinElmer TRF0201M) in LANCE detection buffer (PerkinElmer CR97-100). The reaction was equilibrated for 1 hour and the signal read in the Perkin Elmer Envision in TR-FRET mode (excitation at 320 nm and emission at 615/665 nm).
Background: TR-FRET usually uses a lanthanide donor and a delayed reading to cut background.

Another data set deals with A431 cells. Briefly: Cell viability assay (Cell TiterGlo), A431 cells. The data set is classed as cell-based. Here is the method: (§1) Cell viability assays were performed using A431 or H929 cells. A431 cells were seeded in 96-well plates at 10,000 cells/well, and after overnight incubation, treated with compounds at 2-times the final concentration to result in a dose response of 3-fold dilutions from 10 μM to 0.0005 μM (50 μL/well, 0.1% final DMSO concentration). H929 cells were seeded in 96-well plates at 10,000 cells/well and treated immediately with compounds as described above. After 24 hours at 37° C., cell viability was measured using Cell TiterGlo reagent (Promega) with a luminescence reader. Alternately, cell viability assays were performed in 384-well format. A431 cells were seeded in 384-well plates at 2500 cells/well and, after overnight incubation, treated with compounds in a dose response of 3-fold dilutions from 10 μM to 0.0005 μM ([…], 0.1% final DMSO concentration). For the H929 viability assay, […] of the compounds was dispensed into 384-well plates in a dose response as described above and cells were immediately seeded in 384-well plates at 2500 cells/well. After 24 hours at […], cell viability was measured using Cell TiterGlo reagent (Promega) with a luminescence reader.

A further data set concerns H929 cells. Briefly: Cell viability assay (Cell TiterGlo), H929 cells. Format: cell-based, human. Here is the method: as §1
A general note: In ATP-based viability assays light output follows the ATP content of the culture.

In another data set the test system is H929 xenograft tumors. The data set is described as follows: Xenograft tumor growth inhibition assay, H929 human multiple myeloma xenograft. Format: in vivo, mice. Particulars: IP, TW x 3; for % TGD (tumor growth delay): (T − C)/C × 100, median time to endpoint; for % TGI: female nude or SCID-beige mice, end of treatment period; for % removed from study: removed due to morbidity or weight loss in excess of 20%. The protocol: Xenograft Tumor Growth Inhibition Assay
The effect of Examples 1, 4, and 5 to inhibit the growth of H929 xenograft tumors implanted in mice was evaluated. NCI-H929 cells obtained from culture were suspended in cell culture medium (MEM, no calcium, no glutamine, Life Technologies Corporation) and diluted 1:1 with a solution of Matrigel™ (BD Biosciences, Franklin Lakes, N.J.). Tumor cells 5 million per site were inoculated subcutaneously into the right hind flank of female nude or SCID-beige mice (Charles River Labs).
Randomization into treatment and vehicle control groups (9-10/group) occurred when the mean tumor volume reached approximately 200 mm^3 Compounds were formulated in 2% DMSO, 5% Tween80, 20% PEG400, 73% HPMC. Administration of compound or vehicle was initiated on the day following randomization and continued for the indicated time. Tumors were measured twice a week throughout the treatment period using a pair of calipers and tumor volumes were calculated according to the formula V=L×W^2/2 (V: volume, mm^3; L: length, mm. W: width, […]). Tumor growth inhibition was calculated based on the mean tumor volume measured at the end of the treatment period according to the formula % TGI=100−mean tumor volume of treatment group/mean tumor volume of control group×100.
(A xenograft is tissue or cells of one species grown in another, often human tumour cells in immunodeficient mice.)

Setting [1] is: Homo sapiens, NCI-H929, 24 hours.

T1 sequence (P50750 whole entry): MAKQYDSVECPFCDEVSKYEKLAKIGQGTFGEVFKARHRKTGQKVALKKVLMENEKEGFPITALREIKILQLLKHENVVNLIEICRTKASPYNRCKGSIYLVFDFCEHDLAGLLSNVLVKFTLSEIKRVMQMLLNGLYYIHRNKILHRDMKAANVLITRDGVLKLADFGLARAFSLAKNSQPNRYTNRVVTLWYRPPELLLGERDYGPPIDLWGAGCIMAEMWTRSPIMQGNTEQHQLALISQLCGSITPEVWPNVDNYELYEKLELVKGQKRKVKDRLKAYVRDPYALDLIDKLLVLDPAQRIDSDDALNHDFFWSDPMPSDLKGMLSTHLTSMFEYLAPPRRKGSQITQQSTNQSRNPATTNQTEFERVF
T1 sequence (O60563 whole entry partner): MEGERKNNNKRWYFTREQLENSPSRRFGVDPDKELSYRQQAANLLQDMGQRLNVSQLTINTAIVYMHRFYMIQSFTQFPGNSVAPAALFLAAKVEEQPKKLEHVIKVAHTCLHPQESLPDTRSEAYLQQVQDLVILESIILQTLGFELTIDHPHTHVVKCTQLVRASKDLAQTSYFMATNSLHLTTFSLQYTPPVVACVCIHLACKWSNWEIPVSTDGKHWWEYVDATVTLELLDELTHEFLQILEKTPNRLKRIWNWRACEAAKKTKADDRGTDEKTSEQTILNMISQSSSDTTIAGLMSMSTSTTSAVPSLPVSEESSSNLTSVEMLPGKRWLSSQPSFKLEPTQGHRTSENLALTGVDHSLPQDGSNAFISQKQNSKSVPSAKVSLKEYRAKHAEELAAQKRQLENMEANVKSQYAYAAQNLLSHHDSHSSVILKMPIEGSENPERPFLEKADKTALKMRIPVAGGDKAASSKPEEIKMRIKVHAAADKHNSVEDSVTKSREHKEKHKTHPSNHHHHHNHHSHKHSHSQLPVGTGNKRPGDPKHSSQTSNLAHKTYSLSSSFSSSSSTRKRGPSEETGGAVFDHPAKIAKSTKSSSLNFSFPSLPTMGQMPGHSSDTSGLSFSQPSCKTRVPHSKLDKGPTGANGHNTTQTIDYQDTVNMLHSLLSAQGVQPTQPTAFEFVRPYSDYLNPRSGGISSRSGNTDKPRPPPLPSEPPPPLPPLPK

As for “1-[(5-fluoropyridin-3-yl)methyl]-6-{2-[1-(methylsulfonyl)piperidin-4-yl]-1H-pyrrolo[2,3-b]pyridin-4-yl}-1H-benzimidazole [Example 13]”, inhibition at CDK9/Cyclin T1 was half-maximal at 26 nM (IC50). Further, the 50% effective concentration (EC50) (in general, the midpoint of the concentration-response curve) in the data set on A431 cells (24 hours) was 583 nM; in the data set with H929 cells (24 hours) it was 29 nM.
Take `Fc1cccc(Cn2cnc3ccc(-c4ccnc5[nH]c(C6CCNCC6)cc45)cc32)c1` [Example 2, 1-(3-fluorobenzyl)-6-[2-(piperidin-4-yl)-1H-pyrrolo[2,3-b]pyridin-4-yl]-1H-benzimidazole]: the half-maximal inhibitory concentration (IC50) (in general, the midpoint of a concentration-inhibition curve) on CDK9/Cyclin T1 came to 9 nM. Also, the EC50 was 12 nM with A431 cells (Homo sapiens, A-431, 24 hours) and 44 nM in the data set with H929 cells (setting [1]).
The corresponding values for `N#Cc1cn(Cc2ccccc2)c2cc(-c3ccnc4[nH]c(C5CCNCC5)cc34)ccc12` [Example 3, 1-benzyl-6-[2-(piperidin-4-yl)-1H-pyrrolo[2,3-b]pyridin-4-yl]-1H-indole-3-carbonitrile] are 24 nM, 24 nM and 79 nM.
Regarding `c1cc(-c2ccc3ncn(CC4CCOCC4)c3c2)c2cc(C3CCNCC3)[nH]c2n1` [Example 5, 6-{2-(piperidin-4-yl)-1H-pyrrolo[2,3-b]pyridin-4-yl}-1-(tetrahydro-2H-pyran-4-ylmethyl)-1H-benzimidazole], the half-maximal inhibitory concentration (IC50) at CDK9/Cyclin T1 was 40 nM. Further, in the data set on H929 cells (setting [1]), a half-maximal response (EC50) required 180 nM. Moreover, in the data set on H929 xenograft tumors (7.50 mg/kg), the “% TGD (tumor growth delay)” value came out at 20%, the “% TGI” value worked out at 39% and the “% removed from study” value is given as 22%. Moreover, in the data set with H929 xenograft tumors (15 mg/kg), the “% TGD (tumor growth delay)” value is 31** %, the “% TGI” value is listed as 58** % and the “% removed from study” value was determined as 11%.
Regarding `N#Cc1cn(Cc2cccc(F)c2)c2cc(-c3ccnc4[nH]c(C5CCNCC5)cc34)ccc12` [Example 8, 1-(3-fluorobenzyl)-6-[2-(piperidin-4-yl)-1H-pyrrolo[2,3-b]pyridin-4-yl]-1H-indole-3-carbonitrile], half-maximal inhibition at CDK9/Cyclin T1 (IC50) required 18 nM. The half-maximal effective concentration (EC50) in the data set with A431 cells (Homo sapiens, A-431, 24 hours) was found to be 52 nM; in the data set on H929 cells (setting [1]) it was 72 nM.
The matching figures for `Fc1cccc(Cn2ccc3cc(F)c(-c4ccnc5[nH]c(C6CCNCC6)cc45)cc32)c1` [Example 9, 4-[5-fluoro-1-(3-fluorobenzyl)-1H-indol-6-yl]-2-(piperidin-4-yl)-1H-pyrrolo[2,3-b]pyridine]: 50 nM, 110 nM and 100 nM.
The corresponding values for `N#Cc1cn(Cc2cccc(F)c2)c2cc(-c3ccnc4[nH]c(C5CCN(CC(O)CO)CC5)cc34)ccc12` (stereo not drawn) [Example 10, 6-{2-[1-(2,3-dihydroxypropyl)piperidin-4-yl]-1H-pyrrolo[2,3-b]pyridin-4-yl}-1-(3-fluorobenzyl)-1H-indole-3-carbonitrile] are 18 nM, 71 nM and 52.3 nM.
On CDK9/Cyclin T1, `Fc1cncc(Cn2cnc3ccc(-c4ccnc5[nH]c(C6CCNCC6)cc45)cc32)c1` [Example 12, 1-[(5-fluoropyridin-3-yl)methyl]-6-[2-(piperidin-4-yl)-1H-pyrrolo[2,3-b]pyridin-4-yl]-1H-benzimidazole] displayed an IC50 of 30 nM. For the same compound, the half-maximal effective concentration (EC50) is 130 nM in the data set with A431 cells (Homo sapiens, A-431, 24 hours) and 75 nM with H929 cells (setting [1]).
The corresponding values for `Fc1cccc(Cn2cnc3ccc(-c4ccnc5[nH]c(C6=CCNCC6)cc45)cc32)c1` [Example 14, 1-(3-fluorobenzyl)-6-[2-(1,2,3,6-tetrahydropyridin-4-yl)-1H-pyrrolo[2,3-b]pyridin-4-yl]-1H-benzimidazole] are 14 nM, 4 nM and 7 nM.
The corresponding values for `CS(=O)(=O)N1CC=C(c2cc3c(-c4ccc5ncn(Cc6cccc(F)c6)c5c4)ccnc3[nH]2)CC1` [Example 15, 1-(3-fluorobenzyl)-6-{2-[1-(methylsulfonyl)-1,2,3,6-tetrahydropyridin-4-yl]-1H-pyrrolo[2,3-b]pyridin-4-yl}-1H-benzimidazole] are 43 nM, 6 nM and 7 nM.
The compound `CS(=O)(=O)N1CCC(c2cc3c(-c4cnc5ccn(Cc6cncc(F)c6)c5c4)ccnc3[nH]2)CC1` [Example 48, 1-[(5-fluoropyridin-3-yl)methyl]-6-{2-[1-(methylsulfonyl)piperidin-4-yl]-1H-pyrrolo[2,3-b]pyridin-4-yl}-1H-pyrrolo[3,2-b]pyridine] showed a concentration for half-maximal inhibition (IC50) on CDK9/Cyclin T1 of 35 nM. The concentration for a half-maximal effect (EC50) with H929 cells (setting [1]) was found to be 540 nM.
Compound `Fc1cncc(Cn2ccc3ccc(-c4ccnc5[nH]c(C6CCNCC6)cc45)nc32)c1` [Example 49, 1′-[(5-fluoropyridin-3-yl)methyl]-2-(piperidin-4-yl)-1H,1′H-4,6′-bipyrrolo[2,3-b]pyridine] had an IC50 on CDK9/Cyclin T1 of 24 nM. Besides, the response with H929 cells (setting [1]) was half-maximal at 250 nM (EC50).
With `Fc1cncc(Cn2ccc3ncc(-c4ccnc5[nH]c(C6=CCNCC6)cc45)cc32)c1` [Example 50, 1-[(5-fluoropyridin-3-yl)methyl]-6-[2-(1,2,3,6-tetrahydropyridin-4-yl)-1H-pyrrolo[2,3-b]pyridin-4-yl]-1H-pyrrolo[3,2-b]pyridine], the IC50 on CDK9/Cyclin T1 is 17 nM. This compound also had an EC50 with H929 cells (setting [1]) of 120 nM.
The matching figures for `CNC(=O)N1CCC(c2cc3c(-c4ccc5ccn(Cc6cncc(F)c6)c5n4)ccnc3[nH]2)CC1` [Example 52, 4-{1′-[(5-fluoropyridin-3-yl)methyl]-1H,1′H-4,6′-bipyrrolo[2,3-b]pyridin-2-yl}-N-methylpiperidine-1-carboxamide]: 11 nM and 1100 nM.
The corresponding values for `CS(=O)(=O)N1CCC(c2cc3c(-c4ccc5ccn(Cc6cncc(F)c6)c5n4)ccnc3[nH]2)CC1` [Example 53, 1′-[(5-fluoropyridin-3-yl)methyl]-2-[1-(methylsulfonyl)piperidin-4-yl]-1H,1′H-4,6′-bipyrrolo[2,3-b]pyridine] are 8 nM and 1400 nM.
The matching figures for `CNC(=O)N1CC=C(c2cc3c(-c4ccc5ccn(Cc6cncc(F)c6)c5n4)ccnc3[nH]2)CC1` [Example 54, 4-{1′-[(5-fluoropyridin-3-yl)methyl]-1H,1′H-4,6′-bipyrrolo[2,3-b]pyridin-2-yl}-N-methyl-3,6-dihydropyridine-1(2 H)-carboxamide]: 27 nM and 210 nM.
At CDK9/Cyclin T1, `CS(=O)(=O)N1CC=C(c2cc3c(-c4ccc5ccn(Cc6cncc(F)c6)c5n4)ccnc3[nH]2)CC1` [Example 55, 1′-[(5-fluoropyridin-3-yl)methyl]-2-[1-(methylsulfonyl)-1,2,3,6-tetrahydropyridin-4-yl]-1H,1′H-4,6′-bipyrrolo[2,3-b]pyridine] returned a 50% inhibitory concentration (IC50) of 65 nM. The same compound returned an EC50 in the data set on H929 cells (setting [1]) of 370 nM.
With `Fc1cncc(Cn2ccc3ccc(-c4ccnc5[nH]c(C6=CCCNC6)cc45)nc32)c1` [Example 56, 1′-[(5-fluoropyridin-3-yl)methyl]-2-(1,2,5,6-tetrahydropyridin-3-yl)-1H,1′H-4,6′-bipyrrolo[2,3-b]pyridine], it took 29 nM to reach half-maximal inhibition against CDK9/Cyclin T1 (IC50). Also, the midpoint of the response in the data set with H929 cells (setting [1]), the EC50, lay at 250 nM.
